Reference: patent publication US20120321637A1, “COMBINATION CANCER THERAPY WITH HERV INHIBITION” (The Board of Regents of the University of Texas System, priority 2011, published 2012)

Assays:
A101D cell line = settings: human, 48 h, 1000 µM
Experimental: The A101D cell line was treated with various combinations of PD98059 (P), 219476 (C), and AZT (A) for 48hrs after which the MTS assay was done.
CellTiter 96 Aqueous One Solution Cell Proliferation Assay (MTS, Promega) was used to measure total vial cells following manufacturer's instructions. 5,000 melanoma cells were seeded in each well of 96-well plates, and were grown for 24 hrs in media with 10% Fetal Bovine Serum (FBS). After that period, media were aspirated and various combinations of treatments were added to each well in media without serum. Based on dose-response analyses, the final concentrations used were: PD90895 at 25 μM; 219476 at 1 μM; AZT at 1000 μM. The plates were incubated for a period of 24 hrs, 48hrs, and 72 hrs, respectively. Then, the MTS solution was added to each well according to the manufacturers protocol. The plates were again incubated for 2-4 hrs, after which absorbance was measured at 490 nm. Data were analyzed and compared for treatment efficiency.

[1] = tested on: BRAF mutant metastatic melanomas; settings: phase I clinical trial; cited from earlier work
melanoma = settings: monotherapy; cited from earlier work

Cc1cn([C@H]2C[C@H](N=[N+]=[N-])[C@@H](CO)O2)c(=O)[nH]c1=O [AZT]
viability (A101D cell line): 87.4%

CCCS(=O)(=O)Nc1ccc(F)c(C(=O)c2c[nH]c3ncc(-c4ccc(Cl)cc4)cc23)c1F [PLX4032]
BRAF mutant metastatic melanomas regressed in response to treatment [1]: approximately 80%

CNC(=O)c1cc(Oc2ccc(NC(=O)Nc3ccc(Cl)c(C(F)(F)F)c3)cc2)ccn1 [sorafenib, 4-[4-[[4-chloro-3-(trifluoromethyl)phenyl]carbamoylamino]phenoxy]-N-methyl-pyridine-2-carboxamide]
clinical benefit in melanoma patients (melanoma): only shows marginal clinical benefit
